The record followed here is PMC6268968 (Molecules, 2012).

Each structure is given as a SMILES string.

The assay deals with T1, Acetylcholinesterase (Electrophorus electricus, UniProt O42275).
T1 construct: gene ache
T1 sequence (O42275 24-633): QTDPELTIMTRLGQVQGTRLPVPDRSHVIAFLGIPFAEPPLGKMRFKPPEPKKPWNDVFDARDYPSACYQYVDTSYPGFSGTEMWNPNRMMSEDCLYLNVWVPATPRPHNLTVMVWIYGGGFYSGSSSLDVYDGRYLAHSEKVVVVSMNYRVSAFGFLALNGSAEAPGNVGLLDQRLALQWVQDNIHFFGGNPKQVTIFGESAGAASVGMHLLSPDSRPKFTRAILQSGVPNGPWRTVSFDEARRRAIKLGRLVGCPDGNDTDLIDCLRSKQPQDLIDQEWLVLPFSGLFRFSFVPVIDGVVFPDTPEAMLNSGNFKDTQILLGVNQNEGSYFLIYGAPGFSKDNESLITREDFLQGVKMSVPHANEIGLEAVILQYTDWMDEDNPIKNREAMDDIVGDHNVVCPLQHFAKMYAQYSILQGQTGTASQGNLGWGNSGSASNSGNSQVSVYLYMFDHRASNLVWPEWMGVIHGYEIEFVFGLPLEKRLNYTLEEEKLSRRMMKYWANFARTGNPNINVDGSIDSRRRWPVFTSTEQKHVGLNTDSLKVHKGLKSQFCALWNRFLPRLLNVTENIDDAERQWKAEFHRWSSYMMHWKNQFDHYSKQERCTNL
The assay is described as follows: Ellman spectrophotometric assay (acetylthiocholine/DTNB, […] nm). The class given is biochemical.
Broadly, the IC50 is the concentration that gives 50% inhibition. Low values mean greater potency in that assay, high ones weaker potency in that assay. In the case of `O=C(/C=C/c1ccc(O)cc1)NCCc1ccc(O)cc1` [compound 1, trans-N-coumaroyltyramine], half-maximal inhibition (IC50) required 98.3 µM.
Then `COc1cc(/C=C/C(=O)NCCc2ccc(O)cc2)ccc1O` [compound 2, trans-N-feruloyltyramine], with 86 µM.
`O=C(/C=C/c1ccc(O)c(O)c1)NCCc1ccc(O)cc1` [compound 3, trans-N-caffeoyltyramine] came in with an IC50 of 84.3 µM.
